Results taken from US20030087430A1 (priority 2001, published 2003).

Assays:
Salmonella [1] = experiment: Intracellular growth of Salmonella in RAW 264.7 macrophages (colony forming units); assay type: cell-based, S. typhimurium
Experimental: RAW 264.7 macrophages were plated in triplicate at a density of 5×10^5 cells/well, and incubated for 6 hours prior to infection with various treatments (DMEM-FBS, DMEM-LPDS, DMEM-D-FBS+30 uM Mevinolin, or DMEM-FBS+30 uM Mevinolin, or DMEM-FBS+30 uM Mevinolin+150 uM mevalonate). Cells were infected at a multiplicity of infection of 10 bacteria per cell for 15 minutes at 37° C. After infection, monolayers were incubated in media containing 100 ug/ml gentamicin to kill extracellular bacteria and then maintained in media containing 10 ug/ml for the remainder of the experiment. At 20 hours post infection, the cells were washed three times in PBS, lysed in 1% Triton X-100 and then plated to determine colony forming units.
RAW 264.7 macrophages were plated in triplicate at a density of 4×10^5 cells/well, and infected with bacteria at a multiplicity of infection of 10 bacteria per cell for 15 minutes at 37° C.
After infection, the 12 ug/ml of 4,4,10-β trimethyl-trans-decal-3β-ol (TMD) inhibitor was added to the media which also contained 100 ug/ml gentamicin. At 2 hours post infection, the gentamicin concentration was lowered to 10 ug/ml and maintained for the remainder of the experiment. At 20 hours post infection, cells were lysed with 1% Triton X-100 and bacteria were plated for colony forming units.
Macrophages were treated with 50 nM mevinolin for 3 days prior to infection. Cells were infected as described above, lysed with Triton X-100 at 2 and 20 hours post infection, and then plated to determine colony forming units.

[2] = test system: conversion of squalene oxide to lanosterol; experiment: Cholesterol synthesis in TMD-treated macrophages; assay type: cell-based; details: 12 ug/ml TMD, RAW 264.7 macrophages
Salmonella [3] = experiment: Extracellular growth of Salmonella in Luria broth (optical density); assay type: cell-based; details: LB containing 30 uM mevinolin, 37° C., optical density at 23 hours and growth curve
Experimental: Triplicate cultures of Salmonella were grown in a shaking incubator at 37° C. in plain LB, or LB containing 30 uM Mevinolin, and optical density was recorded at 23 hours after inoculation (results shown in FIG. 4A). Triplicate cultures of Salmonella were grown in a shaking incubator at 37° C. in plain LB or in LB containing 30 uM Mevinolin and optical density measurements were used to construct a growth curve (results shown in FIG. 4B).

RAW 264.7 macrophages = experiment: Host cell viability (Alamar Blue reduction); assay type: cell-based; details: 10 nM to 100 uM mevinolin with or without mevalonate, 24 hours, Alamar Blue 3 hours
Experimental: RAW 264.7 macrophages were plated at a density of 1×10^5 cells/well and each sample represents the mean of six wells. Cells were treated with concentrations of mevinolin at 10 nM (1), 100 nM (2), 500 nM (3), 1 uM (4), 10 uM (5), 50 uM (6), 100 uM (7), 50 uM mevinolin+50 uM mevalonate (8), 50 uM mevinolin+150 uM mevalonate (9), 100 uM mevinolin+50 uM mevalonate (10), and 100 uM mevinolin+150 uM mevalonate (11), for 24 hours at 37° C. and then incubated with Alamar Blue for 3 hours.

Legionella = assay type: cell-based
[4] = test system: RAW264.7 macrophages infected with S. typhimurium (SL1344); experiment: TUNEL staining of Salmonella-infected macrophages (apoptosis); assay type: cell-based; details: 30 μM mevinolin from 4 hours prior to infection, 13 hours post infection
Experimental: RAW264.7 macrophages were treated with 30 uM mevinolin starting at 4 hours prior to infection. Infections were done with S. typhimurium (SL1344) at a moi of 10 bacteria per cell. At 13 hours post infection, cells were fixed and processed for TUNEL staining. At least 100 infected and 100 uninfected cells were counted in each monolayer and scored for TUNEL staining. Uninfected cells (black) and infected cells (gray) are shown. Averages of duplicate samples are shown.

Structure (SMILES)	intracellular survival of Salmonella (Salmonella [1]; 12 ug/ml TMD added after infection, RAW 264.7 macrophages, CFU at 20 hours post infection)	cholesterol synthesis of treated cells [2]	intracellular growth of Salmonella at physiologically relevant concentration (Salmonella [1]; 50 nM mevinolin for 3 days prior to infection, CFU at 2 and 20 hours post infection)	reversal of the defect in Salmonella intracellular growth by mevalonate (Salmonella [1]; 30 uM mevinolin + 150 uM mevalonate, RAW 264.7 macrophages)	Salmonella's intracellular survival (Salmonella [1]; RAW 264.7 macrophages, 30 uM mevinolin from 6 hours prior to infection, CFU at 20 hours post infection)	bacterial growth in liquid culture (extracellular growth of Salmonella) (Salmonella [3])	host cell viability (RAW 264.7 macrophages)	intracellular growth of Legionella in human macrophages (Legionella)	reversal of the defect in Legionella intracellular growth by mevalonate (Legionella)	apoptosis in Salmonella-infected macrophages (TUNEL staining) [4]
CC1(C)[C@@H](O)CC[C@]2(C)CCCC[C@@H]12 (relative stereo) [TMD, 4,4,10-β trimethyl-trans-decal-3β-ol]	did not lead to a decrease in intracellular survival of Salmonella	accumulated intermediate precursors and made very little cholesterol	–	–	–	–	–	–	–	–
CC[C@H](C)C(=O)O[C@H]1C[C@@H](C)C=C2C=C[C@H](C)[C@H](CC[C@@H]3C[C@@H](O)CC(=O)O3)[C@H]21 [mevinolin]	–	–	inhibit the intracellular growth of Salmonella	can be reversed by the addition of mevalonate	decreased Salmonella's intracellular survival by a factor of ten	does not affect bacterial growth in liquid culture	host cell viability is not affected	inhibited intracellular growth of Legionella in human macrophages	could be reversed by the addition of mevalonate	induces apoptosis in Salmonella-infected macrophages
